Data: US20070275967A1, “Pyrazolinols” (BAYER CROPSCIENCE AKTIENGESELLSCHAFT, priority 2003, published 2007)

Assay: logP determination by HPLC on reversed-phase column (EEC Directive 79/831 Annex V.A8)
Assay type: physicochemical
Conditions: acidic range (pH 2.3), marked a); 0.1% aqueous phosphoric acid/acetonitrile gradient; reversed-phase C 18; 43° C.
Procedure: The logP values given in the table were determined in accordance with EEC Directive 79/831 Annex V.A8 by HPLC (High Performance Liquid Chromatography) on a reversed-phase column (C 18). Temperature: 43° C. (a) Mobile phases for the determination in the acidic range (pH 2.3): 0.1% aqueous phosphoric acid, acetonitrile; linear gradient from 10% acetonitrile to 90% acetonitrile—the corresponding measurement results in table 1 are marked a). (b) Mobile phases for the determination in the neutral range (pH 7.5): 0.01-molar aqueous phosphate buffer solution, acetonitrile; linear gradient from 10% acetonitrile to 90% acetonitrile—the corresponding measurement results in table 1 are marked b). Calibration was carried out using unbranched alkan-2-ones (having 3 to 16 carbon atoms) with known logP values (determination of the logP values by the retention times using linear interpolation between two successive alkanones).

| Structure (SMILES) | logP |
| --- | --- |
| CCC1=NN(C(=S)Nc2cc(C(F)(F)F)ccc2Cl)C(O)(C(F)(F)F)C1 (stereo not shown) [Example 90] | logP = 4.51^a) |
| CC1=NN(C(=O)Nc2ccc(F)cc2)C(O)(C(F)(F)F)C1 (stereo not shown) [Example 117] | logP = 2.70^a) |
| CC(C)(C)C1=NN(C(=O)Nc2ccc(Cl)cc2)C(O)(C(F)(F)F)C1 (stereo not shown) [Example 58] | logP = 4.16^a) |
| CCC1=NN(C(=S)Nc2ccc(C(F)(F)F)cc2)C(O)(C(F)(F)F)C1 (stereo not shown) [Example 54] | logP = 4.27^a) |
| CC(C)C1=NN(C(=S)Nc2ccc(C(C)(C)C)cc2)C(O)(C(F)(F)F)C1 (racemic) [Example 21] | logP = 5.18^a) |
| O=C(Nc1ccc(Cl)cc1)N1N=C(c2ccco2)CC1(O)C(F)(F)F (stereo not shown) [Example 80] | logP = 3.41^a) |
| CCC1=NN(C(=S)Nc2cc(Cl)cc(Cl)c2)C(O)(C(F)(F)F)C1 (stereo not shown) [Example 92] | logP = 4.75^a) |
| CC(C)C1=NN(C(=O)Nc2ccccn2)C(O)(C(F)(F)F)C1 (racemic) [Example 48] | logP = 1.78^a) |
| CC(C)(C)C1=NN(C(=O)Nc2ccc(Cl)cc2Cl)C(O)(C(F)(F)F)C1 (stereo not shown) [Example 68] | logP = 5.18^a) |
| CCC1=NN(C(=S)Nc2ccc(C(C)(C)C)cc2)C(O)(C(F)(F)F)C1 (stereo not shown) [Example 99] | logP = 4.85^a) |
| CC(C)(C)C1=NN(C(=O)Nc2ccc(C#N)cc2)C(O)(C(F)(F)F)C1 (stereo not shown) [Example 60] | logP = 3.34^a) |
| CC(C)(C)C1=NN(C(=O)NCc2ccccc2Cl)C(O)(C(F)(F)F)C1 (stereo not shown) [Example 72] | logP = 3.97^a) |
| CC(C)C1=NN(C(=S)Nc2ccc(OC(F)(F)F)cc2)C(O)(C(F)(F)F)C1 (racemic) [Example 36] | logP = 4.61^a) |
| CCC1=NN(C(=S)Nc2ccccc2OC)C(O)(C(F)(F)F)C1 (stereo not shown) [Example 91] | logP = 3.85^a) |
| CCC1=NN(C(=S)Nc2ccccc2F)C(O)(C(F)(F)F)C1 (stereo not shown) [Example 98] | logP = 3.51^a) |
| CC(C)(C)C1=NN(C(=O)Nc2ccccc2Cl)C(O)(C(F)(F)F)C1 (stereo not shown) [Example 69] | logP = 4.48^a) |

| Structure (SMILES) | logP |
| --- | --- |
| CC1=NN(C(=S)Nc2cccc(Cl)c2Cl)C(O)(C(F)(F)F)C1 (stereo not shown) [Example 103] | logP = 3.75^a) |
| CC(C)(C)C1=NN(C(=O)Nc2ccc(OC(F)(F)F)cc2)C(O)(C(F)(F)F)C1 (stereo not shown) [Example 67] | logP = 4.41^a) |
| CC(C)(C)C1=NN(C(=O)Nc2ccccc2)C(O)(C(F)(F)F)C1 (stereo not shown) [Example 65] | logP = 4.58^a) |
| CC(C)CC1=NN(C(=S)Nc2ccc(C(C)(C)C)cc2)C(O)(C(F)(F)F)C1 (racemic) [Example 25] | logP = 5.50^a) |
| CC1=NN(C(=S)Nc2ccc(Oc3ccccc3)cc2)C(O)(C(F)(F)F)C1 (stereo not shown) [Example 104] | logP = 4.15^a) |
| CC(C)(C)C1=NN(C(=O)Nc2ccc(Cl)c(Cl)c2)C(O)(C(F)(F)F)C1 (stereo not shown) [Example 59] | logP = 4.62^a) |
| CC(C)(C)C1=NN(C(=O)Nc2ccc(Cl)cc2)C(O)(C(F)(F)C(F)(F)F)C1 (stereo not shown) [Example 134] | logP = 4.77^a) |
| COc1ccc(NC(=S)N2N=C(CC(C)C)CC2(O)C(F)(F)F)cc1 (racemic) [Example 23] | logP = 4.17^a) |
| COc1ccc(NC(=S)N2N=C(C(C)(C)C)CC2(O)C(F)(F)F)cc1 (stereo not shown) [Example 61] | logP = 3.54^a) |
| CC1=NN(C(=S)Nc2ccc(C)cc2)C(O)(C(F)(F)F)C1 (stereo not shown) [Example 119] | logP = 3.49^a) |
| CCC1=NN(C(=O)NCc2ccc(Cl)c(Cl)c2)C(O)(C(F)(F)F)C1 (stereo not shown) [Example 97] | logP = 4.34^a) |
| CC(C)C1=NN(C(=S)NCc2ccco2)C(O)(C(F)(F)F)C1 (racemic) [Example 41] | logP = 3.78^a) |
| CC(C)(C)C1=NN(C(=O)NC2CCCCC2)C(O)(C(F)(F)F)C1 (stereo not shown) [Example 66] | logP = 3.68^a) |
| CC1=NN(C(=S)Nc2c(F)cc(F)cc2F)C(O)(C(F)(F)F)C1 (stereo not shown) [Example 105] | logP = 3.12^a) |
| CC(C)CC1=NN(C(=O)Nc2ccccc2)C(O)(C(F)(F)F)C1 (racemic) [Example 3] | logP = 3.72^a) |
